Test system: rat hepatoma, H4IIEC3 cells
Type: cell-based
Method: An experiment was conducted to determine, in a single microfluidic system, the concentration beyond which a medicinal product (acetaminophen) becomes toxic to liver cells (rat hepatoma, H4IIEC3 cells).
The microfluidic chamber used containing 252 identical traps on 2 cm^2 in FIGS. 5A and 5B.
The first microdrops 20 of agarose that is liquid at 37° C. (ultra-low gelling), at 0.9 wt % diluted in culture medium containing H4IIEC3 cells, were trapped in the first trapping zones 15, the second trapping zone 18 remaining free. The first microdrops 20 were then cultured for one day to allow the cells to adhere to one another to form a spheroid by first microdrops 20. […]
By taking a fluorescence image before fusion, the different levels of fluorescence that are correlated with the concentration of medicinal product in the second microdrops 25 could be identified. […]
The chamber was perfused with HFE-7500 (fluorinated oil) containing 1H,1H,2H,2H-perfluorooctan-1-ol at a concentration of 20 vol % in order to fuse the microdrops in contact. […] By taking an image of the final matrix, the spheroids whose viability was affected most could be determined. […] Thus, correlating the result for viability and the concentration of acetaminophen in the second microdrops, it could be determined that the range of toxicity of acetaminophen on these hepatic cells is between 10 and 30 mmol/L for a static exposure of 1 day.

CC(=O)Nc1ccc(O)cc1 [acetaminophen]
cell survival as a function of acetaminophen concentration: the higher the concentration of acetaminophen, the fewer cells survive
range of toxicity of acetaminophen on these hepatic cells (rat, 1 day): 10 and 30
